The values that follow come from patent US8852654B2 (priority 2011, dated 2014).

For series [1] the following is noted: cited from earlier work.
Series [2] is described as follows: Double blind randomized clinical assay in women with low urinary tract infection treated with nitrofurantoin. It counts as in vivo, human. An excerpt:
Patients were ambulatory in the Urology Polyclinical of the Clinical Hospital of the University of Chile (HCUCH). Those that fulfilled the inclusion and exclusion criteria signed an informed consent to participate in the study. Patients were distributed randomly in the two following groups:
During the treatment, under medical and nursery checkup registers of adverse reactions, hemogram, biochemical profile, urocultive and determination of plasma antioxidant capacity were made.

On to `O=C1CN(/N=C/c2ccc([N+](=O)[O-])o2)C(=O)N1` [nitrofurantoin, N-(5-nitro-2-furfuriliden)-1-aminohidantoin], for which the Absorption result in series [1] (after oral administration) is on record as “almost completely absorbed”. Also, in series [1] (oral), the Maximum plasma concentrations entry is given as “about 1 mg/L”. Besides, the Plasma half-life in series [1] (oral, prolonged in renal insufficiency) was 20 to 30 min. Further, in series [2] (human, in vivo), the “Biochemical profile values compared with reference values” was “not statistically different from reference values” and the “Hemogram values compared with reference values” is recorded as “not statistically different from reference values”. For the same compound, the “Patients passed away because of the gastrointestinal adverse reactions” value in series [2] (received only nitrofurantoin, 100 mg every 12 hours, 15 patients per group) is given as 2 patients.
